Each block holds one compound with its values, some of them ahead of it.
Key:
[1] = log P by HPLC on reversed phase columns (LC-MS Method 0); assay type: physicochemical; details: 0.1% formic acid/acetonitrile; Method 0, acidic range, 0.1% formic acid in water and acetonitrile; read-out: log P (HCOOH)
Protocol: Measurement of log P values was performed according to EEC directive 79/831 Annex V.A8 by HPLC (High Performance Liquid Chromatography) on reversed phase columns with the following methods, instrument(s): Agilent 1100 LC system, Agilent MSD system, HTS PAL; Waters IClass Acquity UPLC, SQD2 (MS), PDA (UV). • ^[a]log P value is determined by measurement of LC-UV, in an acidic range, with 0.1% formic acid in water and acetonitrile as eluent (linear gradient from 10% acetonitrile to 95% acetonitrile). • ^[b]log P value is determined by measurement of LC-UV, in a neutral range, with 0.001 molar ammonium acetate solution in water and acetonitrile as eluent (linear gradient from 10% acetonitrile to 95% acetonitrile).
Calibration was done with straight-chain alkan-2-ones (with 3 to 16 carbon atoms) with known log P values (measurement of log P values using retention times with linear interpolation between successive alkanones). Lambda-max-values were determined using UV-spectra from 200 nm to 400 nm and the peak values of the chromatographic signals.

[2] = Assay 1: half-life and plasma clearance upon intravenous administration to beagle dogs; assay type: in vivo; details: dog, iv dose up to 0.3 mg/kg, plasma, geometric mean, Phoenix PK/PD (Example 1: internal tool); for half-life: read-out: Half-life (h/Form) iv, geometric mean (converted)
Protocol: Assay 1: Determination of Half-Life and Plasma Clearance of Compounds of the Invention Upon Administration to Beagle Dogs
Compounds according to the invention were administered as an intravenous (iv) dose (up to 0.3 mg/kg) to beagle dogs (minimum n=3). Blood samples were collected from these beagle dogs up to 168 h after intravenous administration and up to 3024 h after subcutaneous administration. A portion of each whole blood sample was processed to plasma. Compound concentrations were determined in plasma using LCMS/MS. Phoenix™ Pharmacokinetic and Pharmacodynamic (PK/PD) was used to determine half-life and plasma clearance values. Only for Example 1, an internal tool available to the inventors was used to determine the half-life and plasma clearance values.

Dirofilaria immitis [3] = assay: Assay 2: residual protection test, second Dirofilaria immitis infection of dogs 90 days after treatment
Dirofilaria immitis [4] = assay: Assay 2: prevention test, Dirofilaria immitis heartworm infection in dogs (modified Knott and heartworm antigen tests)
Ancylostoma caninum [5] = assay: Assay 3: treatment of an existing hookworm infection in dogs (cohort A); assay type: in vivo; details: 30 mg/kg subcutaneous 15 days after infection
Protocol: (§1) 12 dogs were allocated to one of six groups in three cohorts. Each cohort comprised a negative control group (n=2) (‘Control group’) and a group (n=2) treated with the compound of Example 9 (‘Treatment group’).
(§2) Dogs in negative control groups were administered an equivalent volume of vehicle solution.
(§3) All dogs were infected with 100-300 hookworm (Ancylostoma caninum) 3rd-stage larvae (L3s) via oral gavage (W.A.A.V.P. Guidelines, First edition; Jacobs, D. E., A. Arakawa, C. H. Courtney, et al., 1994. Vet. Parasitol. 52: 179-202). The cohorts were treated as follows: • Cohort A: The compound of Example 9 or the vehicle solution was administered 15 days after infection with Ancylostoma caninum • Cohort B: The compound of Example 9 or the vehicle solution was administered 30 days prior to infection with Ancylostoma caninum • Cohort C: The compound of Example 9 or the vehicle solution was administered 60 days prior to infection with Ancylostoma caninum
(§4) Fecal egg counts (FECs, eggs per gram of feces) were obtained from each dog 15, 20, 25 and 30 days after hookworm infection.
(§5) Following the final FEC, dogs were dewormed with a commercial anthelmintic and feces were collected for 48 hours. Fecal output from each dog was soaked in water for a minimum of 30 minutes and processing through 250 μm, 150 μm and 38 μm sieves to recover expelled adult and immature hookworms. Expelled hookworms were preserved in fixative (5% formalin) and counted.
Cohort A was designed to evaluate effectiveness against patent adult hookworm infections present at the time of treatment with the compound of Example 9.

Ancylostoma caninum [6] = assay: Assay 3: residual efficacy against hookworm infection in dogs (cohorts B and C); assay type: in vivo; details: for % Reduction of Mean Fecal Egg Count / % Reduction of Mean Number of Recovered Hookworms: vs control; for Mean Number of Recovered Hookworms: after final FEC
Protocol: as §1, §2, §3, §4, §5

[7] = cohort B, 30 mg/kg subcutaneous 30 days prior to infection, 15 days after infection
[8] = cohort B, 30 mg/kg subcutaneous 30 days prior to infection, 20 days after infection
[9] = cohort B, 30 mg/kg subcutaneous 30 days prior to infection, 25 days after infection
[10] = cohort B, 30 mg/kg subcutaneous 30 days prior to infection, 30 days after infection
[11] = cohort B, 30 mg/kg subcutaneous 30 days prior to infection
[12] = cohort C, 30 mg/kg subcutaneous 60 days prior to infection, 15 days after infection
[13] = cohort C, 30 mg/kg subcutaneous 60 days prior to infection, 20 days after infection
[14] = cohort C, 30 mg/kg subcutaneous 60 days prior to infection, 25 days after infection
[15] = cohort C, 30 mg/kg subcutaneous 60 days prior to infection, 30 days after infection
[16] = cohort C, 30 mg/kg subcutaneous 60 days prior to infection

- chromatographic logP [1]: 1.93
- clearance [2]: 0.05 L/h/kg
- half-life [2]: 124 h
Compound: O=C(N[C@H]1CCOc2ccccc21)c1cnc2c(-c3cc(F)cc(F)c3F)c(F)ccc2c1N1CC(F)C1 [Example 7, N-[(4S)-3,4-Dihydro-2H-chromen-4-yl]-7-fluoro-4-(3-fluoroazetidin-1-yl)-8-(2,3,5-trifluorophenyl)quinoline-3-carboxamide]

Compound: O=C(N[C@H]1CCOc2ccccc21)c1cnc2c(-c3cc(F)cc(F)c3F)c(F)ccc2c1[C@H]1C[C@H](F)C1 [Example 9, N—((S)-chroman-4-yl)-7-fluoro-4-((1R,3S)-3-fluorocyclobutyl)-8-(2,3,5-trifluorophenyl)quinoline-3-carboxamide]
- dogs with a positive heartworm antigen test result (Dirofilaria immitis [3]; 30 mg/kg subcutaneous 90 days before second infection, 149 days after second infection): 50%
- residual protection from infection with Dirofilaria immitis (Dirofilaria immitis [3]; dogs, 30 mg/kg subcutaneous prior to second infection): significant residual protection
- reduction in worm burden in the heart and lungs relative to the negative control group (Dirofilaria immitis [3]; dogs, 30 mg/kg subcutaneous prior to second infection, necropsy approx. 5 months after infection, all dogs): > 80%
- dogs with positive test results in the modified Knott and heartworm antigen tests (Dirofilaria immitis [4]; 30 mg/kg subcutaneous 90 days after infection, 150, 180 and 210 days after infection): None of the dogs
- effectiveness at preventing the development of patent adult heartworm (Dirofilaria immitis [4]; dogs, 30 mg/kg subcutaneous, administered 90 days after experimental infection): 100%
- Fecal egg count reduction upon treatment (Ancylostoma caninum [5]): > 90%
- Mean Fecal Egg Count (Ancylostoma caninum [5]; 15 days after infection): 0 EPG
- % Reduction of Mean Fecal Egg Count (Ancylostoma caninum [5]; 15 days after infection, vs control): 100%
- Mean Fecal Egg Count (Ancylostoma caninum [5]; 20 days after infection): 0 EPG
- % Reduction of Mean Fecal Egg Count (Ancylostoma caninum [5]; 20 days after infection, vs control): 100%
- Mean Fecal Egg Count (Ancylostoma caninum [5]; 25 days after infection): 25 EPG
- % Reduction of Mean Fecal Egg Count (Ancylostoma caninum [5]; 25 days after infection, vs control): 93.75%
- Mean Fecal Egg Count (Ancylostoma caninum [5]; 30 days after infection): 0 EPG
- % Reduction of Mean Fecal Egg Count (Ancylostoma caninum [5]; 30 days after infection, vs control): 100%
- Mean Number of Recovered Hookworms (Ancylostoma caninum [5]; after final FEC): 0.0
- % Reduction of Mean Number of Recovered Hookworms (Ancylostoma caninum [5]; vs control): 100%
- clearance [2]: 0.07 L/h/kg
- half-life [2]: 190 h
- Mean Fecal Egg Count (Ancylostoma caninum [6]; [7]): 0 EPG
- % Reduction of Mean Fecal Egg Count (Ancylostoma caninum [6]; [7]): 100%
- Mean Fecal Egg Count (Ancylostoma caninum [6]; [8]): 0 EPG
- % Reduction of Mean Fecal Egg Count (Ancylostoma caninum [6]; [8]): 100%
- Mean Fecal Egg Count (Ancylostoma caninum [6]; [9]): 0 EPG
- % Reduction of Mean Fecal Egg Count (Ancylostoma caninum [6]; [9]): 100%
- Mean Fecal Egg Count (Ancylostoma caninum [6]; [10]): 0 EPG
- % Reduction of Mean Fecal Egg Count (Ancylostoma caninum [6]; [10]): 100%
- Mean Number of Recovered Hookworms (Ancylostoma caninum [6]; [11]): 0
- % Reduction of Mean Number of Recovered Hookworms (Ancylostoma caninum [6]; [11]): 100%
- Mean Fecal Egg Count (Ancylostoma caninum [6]; [12]): 0 EPG
- % Reduction of Mean Fecal Egg Count (Ancylostoma caninum [6]; [12]): 100%
- Mean Fecal Egg Count (Ancylostoma caninum [6]; [13]): 0 EPG
- % Reduction of Mean Fecal Egg Count (Ancylostoma caninum [6]; [13]): 100%
- Mean Fecal Egg Count (Ancylostoma caninum [6]; [14]): 0 EPG
- % Reduction of Mean Fecal Egg Count (Ancylostoma caninum [6]; [14]): 100%
- Mean Fecal Egg Count (Ancylostoma caninum [6]; [15]): 0 EPG
- % Reduction of Mean Fecal Egg Count (Ancylostoma caninum [6]; [15]): 100%
- Mean Number of Recovered Hookworms (Ancylostoma caninum [6]; [16]): 0
- % Reduction of Mean Number of Recovered Hookworms (Ancylostoma caninum [6]; [16]): 100%
- duration of 100% protection from infections with hookworm larvae (Ancylostoma caninum [6]; cohorts B and C, 30 mg/kg subcutaneous): at least 60 days
- protection from infections with hookworm larvae (Ancylostoma caninum [6]; cohorts B and C, 30 mg/kg subcutaneous, FECs and expelled worm counts, for at least 60 days): 100%
